ChEMBL document CHEMBL2406981, “Novel pyrazoline amidoxime and their 1,2,4-oxadiazole analogues: synthesis and pharmacological screening” (Bioorg Med Chem Lett, 2013)
≈ marks a conversion by molar mass, not a printed value.

Columns and labels:
Type in all cases: functional
Aspergillus flavus [1] = test: Antimicrobial activity against Aspergillus flavus MTCC 873 at 50 ug/ml after 24 hrs by agar disc diffusion method; conditions: MTCC 873, 24 h, read-out: DIZ
[2] = tested on: Radical scavenging activity; test: Antioxidant activity assessed as DPPH free radical scavenging activity at 50 ug/ml after 20 mins
Shigella flexneri [3] = test: Antimicrobial activity against Shigella flexneri MTCC 1457 at 50 ug/ml after 24 hrs by agar disc diffusion method; conditions: MTCC 1457, 24 h, read-out: DIZ
Aspergillus niger [4] = test: Antimicrobial activity against Aspergillus niger MTCC 281 at 50 ug/ml after 24 hrs by agar disc diffusion method; conditions: MTCC 281, 24 h, read-out: DIZ
Bacillus cereus [5] = test: Antimicrobial activity against Bacillus cereus MTCC 8372 at 100 ug/ml after 24 hrs by agar disc diffusion method; conditions: MTCC 8372, 24 h, read-out: DIZ
Staphylococcus aureus [6] = test: Antimicrobial activity against Staphylococcus aureus MTCC 96 at 50 ug/ml after 24 hrs by agar disc diffusion method; conditions: MTCC 96, 24 h, read-out: DIZ
Escherichia coli [7] = test: Antimicrobial activity against Escherichia coli MTCC 724
[8] = Antioxidant activity against ferric chloride-induced lipid peroxidation using egg lecithin at 100 ug/ml after 1 hr
[9] = Antioxidant activity assessed as reducing power of ferric ion at 10 ug/ml after 20 mins; set-up: scale not given: the % may be the effect or the level left
Shigella flexneri [10] = test: Antimicrobial activity against Shigella flexneri MTCC 1457
Aspergillus niger [11] = test: Antimicrobial activity against Aspergillus niger MTCC 281
Bacillus cereus [12] = test: Antimicrobial activity against Bacillus cereus MTCC 8372 at 50 ug/ml after 24 hrs by agar disc diffusion method; conditions: MTCC 8372, 24 h, read-out: DIZ
[13] = Antioxidant activity assessed as reducing power of ferric ion at 50 ug/ml after 20 mins; set-up: scale not given: the % may be the effect or the level left
Bacillus cereus [14] = test: Antimicrobial activity against Bacillus cereus MTCC 8372
[15] = Antioxidant activity assessed as reducing power of ferric ion at 100 ug/ml after 20 mins; set-up: scale not given: the % may be the effect or the level left
Aspergillus flavus [16] = test: Antimicrobial activity against Aspergillus flavus MTCC 873
[17] = tested on: Radical scavenging activity; test: Antioxidant activity assessed as DPPH free radical scavenging activity at 10 ug/ml after 20 mins
[18] = Antioxidant activity against ferric chloride-induced lipid peroxidation using egg lecithin at 10 ug/ml after 1 hr
Staphylococcus aureus [19] = test: Antimicrobial activity against Staphylococcus aureus MTCC 96
Klebsiella pneumoniae [20] = test: Antimicrobial activity against Klebsiella pneumoniae MTCC 3384 at 50 ug/ml after 24 hrs by agar disc diffusion method; conditions: MTCC 3384, 24 h, read-out: DIZ
Staphylococcus aureus [21] = test: Antimicrobial activity against Staphylococcus aureus MTCC 96 at 100 ug/ml after 24 hrs by agar disc diffusion method; conditions: MTCC 96, 24 h, read-out: DIZ
[22] = Antioxidant activity against ferric chloride-induced lipid peroxidation using egg lecithin at 50 ug/ml after 1 hr
Klebsiella pneumoniae [23] = test: Antimicrobial activity against Klebsiella pneumoniae MTCC 3384
[24] = tested on: Radical scavenging activity; test: Antioxidant activity assessed as DPPH free radical scavenging activity at 100 ug/ml after 20 mins
Aspergillus flavus [25] = test: Antimicrobial activity against Aspergillus flavus MTCC 873 at 100 ug/ml after 24 hrs by agar disc diffusion method; conditions: MTCC 873, 24 h, read-out: DIZ
Aspergillus niger [26] = test: Antimicrobial activity against Aspergillus niger MTCC 281 at 100 ug/ml after 24 hrs by agar disc diffusion method; conditions: MTCC 281, 24 h, read-out: DIZ
Klebsiella pneumoniae [27] = test: Antimicrobial activity against Klebsiella pneumoniae MTCC 3384 at 100 ug/ml after 24 hrs by agar disc diffusion method; conditions: MTCC 3384, 24 h, read-out: DIZ
Escherichia coli [28] = test: Antimicrobial activity against Escherichia coli MTCC 724 at 50 ug/ml after 24 hrs by agar disc diffusion method; conditions: MTCC 724, 24 h, read-out: DIZ
[29] = Antiinflammatory activity against heat-induced albumin denaturation at […] preincubated for 15 mins before heat induction by UV-vis spectrophotometer analysis
Escherichia coli [30] = test: Antimicrobial activity against Escherichia coli MTCC 724 at 100 ug/ml after 24 hrs by agar disc diffusion method; conditions: MTCC 724, 24 h, read-out: DIZ
Shigella flexneri [31] = test: Antimicrobial activity against Shigella flexneri MTCC 1457 at 100 ug/ml after 24 hrs by agar disc diffusion method; conditions: MTCC 1457, 24 h, read-out: DIZ

Structure (SMILES)	zone of inhibition at 50 µg/mL (Aspergillus flavus [1]) [mm]	Activity [2] [%]	zone of inhibition at 50 µg/mL (Shigella flexneri [3]) [mm]	zone of inhibition at 50 µg/mL (Aspergillus niger [4]) [mm]	zone of inhibition at 100 µg/mL (Bacillus cereus [5]) [mm]	zone of inhibition at 50 µg/mL (Staphylococcus aureus [6]) [mm]	MIC (Escherichia coli [7]) [mg/L]	Activity [9] [%]	MIC (Shigella flexneri [10]) [mg/L]	MIC (Aspergillus niger [11]) [mg/L]	zone of inhibition at 50 µg/mL (Bacillus cereus [12]) [mm]	Activity [13] [%]	MIC (Bacillus cereus [14]) [mg/L]	Activity [15] [%]	MIC (Aspergillus flavus [16]) [mg/L]	Activity [17] [%]	MIC (Staphylococcus aureus [19]) [mg/L]	zone of inhibition at 50 µg/mL (Klebsiella pneumoniae [20]) [mm]	zone of inhibition at 100 µg/mL (Staphylococcus aureus [21]) [mm]	MIC (Klebsiella pneumoniae [23]) [mg/L]	also measured
N/C(=N\O)C1CC(c2ccc(Cl)cc2)=NN1c1ccccc1 (centres undefined)	6	39	8	8	8	3	40 (≈ 127 µM)	11	20 (≈ 63.5 µM)	20 (≈ 63.5 µM)	4	28	30 (≈ 95.3 µM)	68	25 (≈ 79.4 µM)	29	40 (≈ 127 µM)	8	5	20 (≈ 63.5 µM)	inhibition [8]: 14%; inhibition [18]: 18%; inhibition [22]: 12%; Activity [24]: 69%; zone of inhibition at 100 µg/mL (Aspergillus flavus [25]): 10 mm; zone of inhibition at 100 µg/mL (Aspergillus niger [26]): 8 mm; zone of inhibition at 100 µg/mL (Klebsiella pneumoniae [27]): 10 mm; zone of inhibition at 50 µg/mL (Escherichia coli [28]): 3 mm; inhibition [29]: 59.1%; zone of inhibition at 100 µg/mL (Escherichia coli [30]): 10 mm; zone of inhibition at 100 µg/mL (Shigella flexneri [31]): 12 mm
O=C(N[C@H](CO)[C@H](O)c1ccc([N+](=O)[O-])cc1)C(Cl)Cl [CHLORAMPHENICOL]	–	–	10	–	18	9	10 (≈ 30.9 µM)	–	10 (≈ 30.9 µM)	–	10	–	10 (≈ 30.9 µM)	–	–	–	10 (≈ 30.9 µM)	12	16	10 (≈ 30.9 µM)	zone of inhibition at 100 µg/mL (Klebsiella pneumoniae [27]): 20 mm; zone of inhibition at 50 µg/mL (Escherichia coli [28]): 10 mm; zone of inhibition at 100 µg/mL (Escherichia coli [30]): 18 mm; zone of inhibition at 100 µg/mL (Shigella flexneri [31]): 24 mm
COc1ccc(-c2nc(C3CC(c4ccc(O)cc4)=NN3c3ccccc3)no2)cc1OC (centres undefined)	14	53	10	18	16	8	25 (≈ 56.5 µM)	18	15 (≈ 33.9 µM)	5 (≈ 11.3 µM)	10	24	15 (≈ 33.9 µM)	75	10 (≈ 22.6 µM)	31	20 (≈ 45.2 µM)	8	18	25 (≈ 56.5 µM)	inhibition [8]: 73%; inhibition [18]: 32%; inhibition [22]: 45%; Activity [24]: 76%; zone of inhibition at 100 µg/mL (Aspergillus flavus [25]): 20 mm; zone of inhibition at 100 µg/mL (Aspergillus niger [26]): 26 mm; zone of inhibition at 100 µg/mL (Klebsiella pneumoniae [27]): 12 mm; zone of inhibition at 50 µg/mL (Escherichia coli [28]): 7 mm; inhibition [29]: 58.5%; zone of inhibition at 100 µg/mL (Escherichia coli [30]): 12 mm; zone of inhibition at 100 µg/mL (Shigella flexneri [31]): 18 mm
COc1ccccc1-c1nc(C2CC(c3ccc(Cl)cc3)=NN2c2ccccc2)no1 (centres undefined)	9	30	6	10	8	5	35 (≈ 81.2 µM)	12	25 (≈ 58 µM)	15 (≈ 34.8 µM)	4	23	35 (≈ 81.2 µM)	68	15 (≈ 34.8 µM)	24	30 (≈ 69.6 µM)	6	10	25 (≈ 58 µM)	inhibition [8]: 67%; inhibition [18]: 21%; inhibition [22]: 38%; Activity [24]: 64%; zone of inhibition at 100 µg/mL (Aspergillus flavus [25]): 10 mm; zone of inhibition at 100 µg/mL (Aspergillus niger [26]): 20 mm; zone of inhibition at 100 µg/mL (Klebsiella pneumoniae [27]): 8 mm; zone of inhibition at 50 µg/mL (Escherichia coli [28]): 4 mm; inhibition [29]: 56.8%; zone of inhibition at 100 µg/mL (Escherichia coli [30]): 8 mm; zone of inhibition at 100 µg/mL (Shigella flexneri [31]): 8 mm
Oc1ccc(C2=NN(c3ccccc3)C(c3noc(-c4ccc(O)cc4)n3)C2)cc1 (centres undefined)	12	47	14	14	10	8	10 (≈ 25.1 µM)	12	10 (≈ 25.1 µM)	10 (≈ 25.1 µM)	6	30	25 (≈ 62.7 µM)	76	10 (≈ 25.1 µM)	31	20 (≈ 50.2 µM)	10	12	15 (≈ 37.6 µM)	inhibition [8]: 78%; inhibition [18]: 34%; inhibition [22]: 58%; Activity [24]: 86%; zone of inhibition at 100 µg/mL (Aspergillus flavus [25]): 20 mm; zone of inhibition at 100 µg/mL (Aspergillus niger [26]): 22 mm; zone of inhibition at 100 µg/mL (Klebsiella pneumoniae [27]): 16 mm; zone of inhibition at 50 µg/mL (Escherichia coli [28]): 12 mm; inhibition [29]: 69.7%; zone of inhibition at 100 µg/mL (Escherichia coli [30]): 20 mm; zone of inhibition at 100 µg/mL (Shigella flexneri [31]): 22 mm
Oc1ccc(C2=NN(c3ccccc3)C(c3noc(-c4ccc(Cl)cc4)n3)C2)cc1 (centres undefined)	10	51	8	12	10	6	20 (≈ 48 µM)	14	20 (≈ 48 µM)	10 (≈ 24 µM)	8	26	20 (≈ 48 µM)	76	15 (≈ 36 µM)	30	25 (≈ 60 µM)	10	10	15 (≈ 36 µM)	inhibition [8]: 80%; inhibition [18]: 40%; inhibition [22]: 61%; Activity [24]: 70%; zone of inhibition at 100 µg/mL (Aspergillus flavus [25]): 18 mm; zone of inhibition at 100 µg/mL (Aspergillus niger [26]): 18 mm; zone of inhibition at 100 µg/mL (Klebsiella pneumoniae [27]): 12 mm; zone of inhibition at 50 µg/mL (Escherichia coli [28]): 8 mm; inhibition [29]: 74.6%; zone of inhibition at 100 µg/mL (Escherichia coli [30]): 14 mm; zone of inhibition at 100 µg/mL (Shigella flexneri [31]): 18 mm
Clc1ccc(-c2nc(C3CC(c4ccccc4)=NN3c3ccccc3)no2)cc1 (centres undefined)	12	42	6	11	10	8	30 (≈ 74.8 µM)	12	25 (≈ 62.4 µM)	10 (≈ 24.9 µM)	6	22	25 (≈ 62.4 µM)	65	10 (≈ 24.9 µM)	23	20 (≈ 49.9 µM)	5	10	30 (≈ 74.8 µM)	inhibition [8]: 73%; inhibition [18]: 34%; inhibition [22]: 48%; Activity [24]: 67%; zone of inhibition at 100 µg/mL (Aspergillus flavus [25]): 14 mm; zone of inhibition at 100 µg/mL (Aspergillus niger [26]): 20 mm; zone of inhibition at 100 µg/mL (Klebsiella pneumoniae [27]): 8 mm; zone of inhibition at 50 µg/mL (Escherichia coli [28]): 4 mm; inhibition [29]: 53.7%; zone of inhibition at 100 µg/mL (Escherichia coli [30]): 18 mm; zone of inhibition at 100 µg/mL (Shigella flexneri [31]): 10 mm
OC(Cn1cncn1)(Cn1cncn1)c1ccc(F)cc1F [FLUCONAZOLE]	16	–	–	20	–	–	–	–	–	5 (≈ 16.3 µM)	–	–	–	–	5 (≈ 16.3 µM)	–	–	–	–	–	zone of inhibition at 100 µg/mL (Aspergillus flavus [25]): 28 mm; zone of inhibition at 100 µg/mL (Aspergillus niger [26]): 30 mm
O=C(O)Cc1ccccc1Nc1c(Cl)cccc1Cl	–	–	–	–	–	–	–	–	–	–	–	–	–	–	–	–	–	–	–	–	inhibition [29]: 84.4%
O=C1O[C@H]([C@@H](O)CO)C(O)=C1O	–	57	–	–	–	–	–	14	–	–	–	32	–	82	–	32	–	–	–	–	Activity [24]: 94%
